In ChEMBL document CHEMBL5291721, “A preclinical secondary pharmacology resource illuminates target-adverse drug reaction associations of marketed drugs” (Nat Commun, 2023):

How the values were obtained:
[1] = molecular target: Beta-1 adrenergic receptor (Homo sapiens, UniProt P08588); assay type: functional, cell-based
[2] = molecular target: 5-hydroxytryptamine receptor 7 (Homo sapiens, UniProt P34969)
D(1A) dopamine receptor = D(1A) dopamine receptor (Homo sapiens, UniProt P21728)
[3] = molecular target: 5-hydroxytryptamine receptor 6 (Homo sapiens, UniProt P50406)
Chain of 5-hydroxytryptamine receptor 6 (P50406 whole entry): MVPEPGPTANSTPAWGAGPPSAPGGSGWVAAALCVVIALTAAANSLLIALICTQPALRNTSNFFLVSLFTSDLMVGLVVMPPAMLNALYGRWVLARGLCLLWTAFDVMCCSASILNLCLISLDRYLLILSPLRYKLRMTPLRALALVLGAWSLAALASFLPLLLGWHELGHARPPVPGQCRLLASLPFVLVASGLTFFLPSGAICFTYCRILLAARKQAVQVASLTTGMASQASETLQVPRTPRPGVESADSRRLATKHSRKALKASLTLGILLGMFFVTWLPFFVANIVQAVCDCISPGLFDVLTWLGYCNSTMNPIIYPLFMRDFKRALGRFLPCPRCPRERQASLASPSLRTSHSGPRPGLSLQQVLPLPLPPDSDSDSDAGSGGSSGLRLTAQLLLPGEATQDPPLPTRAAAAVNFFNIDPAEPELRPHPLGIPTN

[4] = molecular target: 5-hydroxytryptamine receptor 5A (Homo sapiens, UniProt P47898)
Chain of 5-hydroxytryptamine receptor 5A (P47898 whole entry): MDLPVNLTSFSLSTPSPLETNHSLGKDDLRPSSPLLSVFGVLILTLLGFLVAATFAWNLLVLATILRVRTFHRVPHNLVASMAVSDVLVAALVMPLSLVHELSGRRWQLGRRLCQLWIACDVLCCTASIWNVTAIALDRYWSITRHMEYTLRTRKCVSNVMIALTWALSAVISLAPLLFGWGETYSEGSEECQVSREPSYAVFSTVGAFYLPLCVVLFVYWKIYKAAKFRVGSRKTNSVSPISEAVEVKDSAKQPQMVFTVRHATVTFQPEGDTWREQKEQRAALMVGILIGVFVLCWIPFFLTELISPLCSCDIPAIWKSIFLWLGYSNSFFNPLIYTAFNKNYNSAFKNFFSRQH

[5] = molecular target: T1, Alpha-1A adrenergic receptor (Homo sapiens, UniProt P35348)
T1 sequence (P35348 whole entry): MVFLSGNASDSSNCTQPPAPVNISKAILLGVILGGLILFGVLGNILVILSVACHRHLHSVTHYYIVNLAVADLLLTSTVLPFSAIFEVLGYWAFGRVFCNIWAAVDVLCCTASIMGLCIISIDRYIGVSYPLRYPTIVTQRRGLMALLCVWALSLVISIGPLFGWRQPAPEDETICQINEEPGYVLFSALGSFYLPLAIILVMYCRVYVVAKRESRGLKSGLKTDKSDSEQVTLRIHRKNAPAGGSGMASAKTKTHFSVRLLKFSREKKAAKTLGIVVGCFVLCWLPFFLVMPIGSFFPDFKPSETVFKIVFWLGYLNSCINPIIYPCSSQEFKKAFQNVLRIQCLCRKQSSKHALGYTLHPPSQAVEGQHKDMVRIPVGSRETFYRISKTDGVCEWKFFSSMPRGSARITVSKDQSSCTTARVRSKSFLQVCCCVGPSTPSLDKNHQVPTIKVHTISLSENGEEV

[6] = molecular target: T2, Muscarinic acetylcholine receptor M4 (Homo sapiens, UniProt P08173)
T2 sequence (P08173 whole entry): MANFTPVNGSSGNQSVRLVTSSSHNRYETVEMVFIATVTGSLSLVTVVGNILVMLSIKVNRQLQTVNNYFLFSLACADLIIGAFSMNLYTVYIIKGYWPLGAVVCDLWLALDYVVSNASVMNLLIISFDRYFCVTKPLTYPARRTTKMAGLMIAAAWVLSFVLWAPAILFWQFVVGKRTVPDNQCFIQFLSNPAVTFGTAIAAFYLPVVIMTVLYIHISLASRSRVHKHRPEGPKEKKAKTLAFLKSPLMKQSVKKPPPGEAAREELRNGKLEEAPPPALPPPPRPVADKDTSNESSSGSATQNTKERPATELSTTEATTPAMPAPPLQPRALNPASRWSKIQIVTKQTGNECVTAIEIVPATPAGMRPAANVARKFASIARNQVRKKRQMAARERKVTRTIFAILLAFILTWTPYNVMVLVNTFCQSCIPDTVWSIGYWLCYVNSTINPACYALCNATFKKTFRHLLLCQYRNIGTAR

D(1B) dopamine receptor = D(1B) dopamine receptor (Homo sapiens, UniProt P21918)
Chain of D(1B) dopamine receptor (P21918 whole entry): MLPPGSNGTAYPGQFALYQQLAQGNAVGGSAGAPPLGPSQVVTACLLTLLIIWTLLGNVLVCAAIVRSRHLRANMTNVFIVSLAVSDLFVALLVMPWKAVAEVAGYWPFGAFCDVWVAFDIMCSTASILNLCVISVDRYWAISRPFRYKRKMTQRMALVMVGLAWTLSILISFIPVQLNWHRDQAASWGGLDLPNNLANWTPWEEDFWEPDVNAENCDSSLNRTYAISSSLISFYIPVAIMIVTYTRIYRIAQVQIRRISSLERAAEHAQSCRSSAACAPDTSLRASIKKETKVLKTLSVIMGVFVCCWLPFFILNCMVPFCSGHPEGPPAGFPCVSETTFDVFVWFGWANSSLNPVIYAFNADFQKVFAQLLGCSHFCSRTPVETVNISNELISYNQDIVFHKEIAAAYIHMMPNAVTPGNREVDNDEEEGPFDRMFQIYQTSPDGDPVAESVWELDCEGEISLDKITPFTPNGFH

Substance-P receptor = Substance-P receptor (Homo sapiens, UniProt P25103)
Chain of Substance-P receptor (P25103 whole entry): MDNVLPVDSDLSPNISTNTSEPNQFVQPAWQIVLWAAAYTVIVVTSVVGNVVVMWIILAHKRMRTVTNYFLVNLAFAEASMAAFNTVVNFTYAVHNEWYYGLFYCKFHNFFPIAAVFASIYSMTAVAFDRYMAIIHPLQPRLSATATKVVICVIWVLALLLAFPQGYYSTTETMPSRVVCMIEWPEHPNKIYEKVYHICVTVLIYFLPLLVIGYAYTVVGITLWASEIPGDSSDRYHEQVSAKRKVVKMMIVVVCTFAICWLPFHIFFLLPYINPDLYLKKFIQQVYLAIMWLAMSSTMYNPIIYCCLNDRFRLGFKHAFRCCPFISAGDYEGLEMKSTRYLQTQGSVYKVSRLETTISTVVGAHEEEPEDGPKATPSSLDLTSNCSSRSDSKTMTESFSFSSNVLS

D(4) dopamine receptor = molecular target: T3, D(4) dopamine receptor (Homo sapiens, UniProt P21917)
T3 sequence (P21917 whole entry): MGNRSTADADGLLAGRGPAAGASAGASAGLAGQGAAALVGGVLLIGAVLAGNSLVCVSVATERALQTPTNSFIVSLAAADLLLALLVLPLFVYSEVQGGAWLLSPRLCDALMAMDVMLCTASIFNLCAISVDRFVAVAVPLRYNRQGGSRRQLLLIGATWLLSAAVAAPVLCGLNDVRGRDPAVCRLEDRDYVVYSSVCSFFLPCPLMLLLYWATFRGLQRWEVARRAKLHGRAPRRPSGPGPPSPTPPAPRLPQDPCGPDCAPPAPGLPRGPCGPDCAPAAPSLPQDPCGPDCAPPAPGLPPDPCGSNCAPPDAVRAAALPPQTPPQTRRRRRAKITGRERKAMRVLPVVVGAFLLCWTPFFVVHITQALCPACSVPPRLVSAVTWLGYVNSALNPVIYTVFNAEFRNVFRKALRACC

Cannabinoid receptor 1 = Cannabinoid receptor 1 (Homo sapiens, UniProt P21554); assay type: functional
Chain of Cannabinoid receptor 1 (P21554 whole entry): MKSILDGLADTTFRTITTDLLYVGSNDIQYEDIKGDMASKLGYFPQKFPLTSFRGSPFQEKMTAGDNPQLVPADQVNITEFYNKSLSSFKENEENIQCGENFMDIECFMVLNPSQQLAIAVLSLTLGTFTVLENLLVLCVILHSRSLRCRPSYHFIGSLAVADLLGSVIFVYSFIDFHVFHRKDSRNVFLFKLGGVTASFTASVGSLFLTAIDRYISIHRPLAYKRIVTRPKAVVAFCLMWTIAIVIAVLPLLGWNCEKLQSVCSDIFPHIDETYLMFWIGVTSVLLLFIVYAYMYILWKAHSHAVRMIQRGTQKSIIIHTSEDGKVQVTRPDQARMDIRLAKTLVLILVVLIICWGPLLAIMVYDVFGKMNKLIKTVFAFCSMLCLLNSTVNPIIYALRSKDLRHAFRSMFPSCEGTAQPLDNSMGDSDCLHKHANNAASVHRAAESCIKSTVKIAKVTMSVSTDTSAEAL

[7] = molecular target: Rod cGMP-specific 3',5'-cyclic phosphodiesterase subunit alpha (Homo sapiens, UniProt P16499); assay type: functional
Chain of Rod cGMP-specific 3',5'-cyclic phosphodiesterase subunit alpha (P16499 whole entry): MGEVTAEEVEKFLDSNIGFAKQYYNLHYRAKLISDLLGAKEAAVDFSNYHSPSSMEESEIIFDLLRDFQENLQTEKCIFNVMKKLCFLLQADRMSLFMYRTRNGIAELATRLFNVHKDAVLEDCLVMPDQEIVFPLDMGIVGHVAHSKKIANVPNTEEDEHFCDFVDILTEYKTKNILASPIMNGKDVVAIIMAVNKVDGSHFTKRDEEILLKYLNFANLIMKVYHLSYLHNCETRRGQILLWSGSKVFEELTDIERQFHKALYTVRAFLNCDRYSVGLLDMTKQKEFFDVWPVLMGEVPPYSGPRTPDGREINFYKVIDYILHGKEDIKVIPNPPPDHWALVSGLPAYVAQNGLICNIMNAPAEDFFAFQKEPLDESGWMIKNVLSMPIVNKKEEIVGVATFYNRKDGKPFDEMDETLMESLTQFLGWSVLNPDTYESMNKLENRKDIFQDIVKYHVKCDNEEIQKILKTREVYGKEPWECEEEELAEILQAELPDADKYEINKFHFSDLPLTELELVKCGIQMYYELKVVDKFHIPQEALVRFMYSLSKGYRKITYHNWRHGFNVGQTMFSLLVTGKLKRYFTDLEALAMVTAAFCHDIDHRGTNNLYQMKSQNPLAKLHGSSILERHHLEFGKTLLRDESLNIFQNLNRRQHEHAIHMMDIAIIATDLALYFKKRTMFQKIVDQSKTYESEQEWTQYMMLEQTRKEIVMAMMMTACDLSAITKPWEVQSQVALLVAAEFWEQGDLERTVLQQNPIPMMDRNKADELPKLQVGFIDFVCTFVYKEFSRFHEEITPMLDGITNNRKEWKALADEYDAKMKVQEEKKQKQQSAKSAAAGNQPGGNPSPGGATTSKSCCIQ

Estrogen receptor beta = Estrogen receptor beta (Homo sapiens, UniProt Q92731)
Chain of Estrogen receptor beta (Q92731 whole entry): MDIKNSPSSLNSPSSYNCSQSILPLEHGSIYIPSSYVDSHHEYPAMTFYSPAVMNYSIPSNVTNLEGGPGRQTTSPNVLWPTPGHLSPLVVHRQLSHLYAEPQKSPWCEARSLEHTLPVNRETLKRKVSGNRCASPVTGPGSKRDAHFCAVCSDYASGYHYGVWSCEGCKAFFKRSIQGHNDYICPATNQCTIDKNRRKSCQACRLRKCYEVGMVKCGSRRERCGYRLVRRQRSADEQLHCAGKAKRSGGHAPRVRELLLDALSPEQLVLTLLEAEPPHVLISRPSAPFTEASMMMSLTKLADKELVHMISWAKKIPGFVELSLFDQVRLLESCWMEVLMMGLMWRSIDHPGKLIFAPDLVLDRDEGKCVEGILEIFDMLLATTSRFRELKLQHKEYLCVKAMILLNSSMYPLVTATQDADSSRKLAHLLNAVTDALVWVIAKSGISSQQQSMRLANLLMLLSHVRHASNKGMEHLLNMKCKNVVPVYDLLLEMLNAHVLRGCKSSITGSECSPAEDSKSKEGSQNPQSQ
Note: assay procedure not described here.

Chain of Beta-1 adrenergic receptor (P08588 whole entry): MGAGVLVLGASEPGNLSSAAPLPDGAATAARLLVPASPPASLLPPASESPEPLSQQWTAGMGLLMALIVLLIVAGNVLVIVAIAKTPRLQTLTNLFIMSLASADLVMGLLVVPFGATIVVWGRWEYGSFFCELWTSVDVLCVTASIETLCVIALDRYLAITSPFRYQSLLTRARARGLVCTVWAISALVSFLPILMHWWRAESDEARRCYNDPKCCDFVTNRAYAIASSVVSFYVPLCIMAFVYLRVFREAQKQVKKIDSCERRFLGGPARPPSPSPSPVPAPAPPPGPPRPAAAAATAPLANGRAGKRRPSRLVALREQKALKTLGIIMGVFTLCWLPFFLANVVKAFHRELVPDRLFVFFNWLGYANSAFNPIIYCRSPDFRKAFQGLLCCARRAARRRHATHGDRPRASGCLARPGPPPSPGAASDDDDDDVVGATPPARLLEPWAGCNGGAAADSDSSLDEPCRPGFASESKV
Chain of 5-hydroxytryptamine receptor 7 (P34969 whole entry): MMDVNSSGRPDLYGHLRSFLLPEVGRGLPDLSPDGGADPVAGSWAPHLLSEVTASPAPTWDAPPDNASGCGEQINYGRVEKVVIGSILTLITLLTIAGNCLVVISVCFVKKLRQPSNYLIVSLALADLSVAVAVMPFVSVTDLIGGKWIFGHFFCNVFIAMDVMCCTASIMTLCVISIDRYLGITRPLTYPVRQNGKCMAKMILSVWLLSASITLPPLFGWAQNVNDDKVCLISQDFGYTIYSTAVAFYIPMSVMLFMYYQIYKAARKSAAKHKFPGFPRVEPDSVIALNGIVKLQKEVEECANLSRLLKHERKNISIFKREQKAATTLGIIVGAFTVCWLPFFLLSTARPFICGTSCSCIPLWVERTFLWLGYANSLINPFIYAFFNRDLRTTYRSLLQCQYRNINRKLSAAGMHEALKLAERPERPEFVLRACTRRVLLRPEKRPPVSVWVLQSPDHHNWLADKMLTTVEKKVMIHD
Chain of D(1A) dopamine receptor (P21728 whole entry): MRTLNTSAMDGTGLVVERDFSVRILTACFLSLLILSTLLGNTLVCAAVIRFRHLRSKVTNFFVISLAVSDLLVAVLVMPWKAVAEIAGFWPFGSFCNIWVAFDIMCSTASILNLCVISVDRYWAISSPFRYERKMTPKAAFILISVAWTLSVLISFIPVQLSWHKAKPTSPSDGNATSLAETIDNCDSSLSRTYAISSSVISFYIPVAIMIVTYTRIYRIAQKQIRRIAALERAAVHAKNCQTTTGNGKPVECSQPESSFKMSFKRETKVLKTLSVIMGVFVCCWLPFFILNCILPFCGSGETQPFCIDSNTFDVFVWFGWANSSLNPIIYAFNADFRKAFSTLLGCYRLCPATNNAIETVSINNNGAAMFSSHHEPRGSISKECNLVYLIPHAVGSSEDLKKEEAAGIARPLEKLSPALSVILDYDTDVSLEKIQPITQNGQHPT

CCC(C(=O)O)c1ccc(CC(C)C)cc1 (centres undefined) [BUTIBUFEN]
AC50 [1]: > 30 µM

C1=Cc2cccc(OCC3CNCCO3)c2C1 (centres undefined) [INDELOXAZINE]
AC50 [1]: > 30 µM

O=C(O)Cc1cn(-c2ccccc2)nc1-c1ccc(Cl)cc1 [LONAZOLAC]
AC50 [1]: > 30 µM

C#C[C@]1(O)CC[C@H]2[C@@H]3CCC4=CCCC[C@@H]4[C@H]3CC[C@@]21C [LYNESTRENOL]
AC50 [1]: > 30 µM

C[C@]12CCC(=O)C=C1CC[C@@H]1[C@@H]2CC[C@@]2(C)[C@H]1CC[C@]2(C)O [METHYLTESTOSTERONE]
AC50 [1]: > 30 µM

NC(=O)C[S+]([O-])C(c1ccccc1)c1ccccc1 (centres undefined) [MODAFINIL]
AC50 [2]: > 10 µM
AC50 (D(1A) dopamine receptor): > 10 µM
AC50 [3]: > 10 µM
AC50 [4]: > 10 µM
AC50 [5]: > 10 µM
AC50 [6]: > 10 µM
AC50 (D(1B) dopamine receptor): > 10 µM
AC50 (Substance-P receptor): > 10 µM
AC50 (D(4) dopamine receptor): > 10 µM
AC50 (Cannabinoid receptor 1): > 10 µM
AC50 [7]: > 10 µM
AC50 (Estrogen receptor beta): > 30 µM

COc1c(C)c2c(c(O)c1C/C=C(\C)CCC(=O)OCCN1CCOCC1)C(=O)OC2 [MYCOPHENOLATE MOFETIL]
AC50 [1]: > 30 µM

Cc1c(Cl)cccc1Nc1ccccc1C(=O)O [TOLFENAMIC ACID]
AC50 [1]: > 30 µM
